Source: PubChem BioAssay AID485340 (Southern Research Specialized Biocontainment Screening …, 2010)
The source made the active and inactive calls. How the calls were made is not given here.

Tested on: M. tuberculosis growth, meropenem IC50 shift with compound
Test: confirmation, meropenem IC50 shift (AID 485340);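 further: growth read after one week of culture plus overnight Alamar Blue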
[1] = compound alone IC50 vs Mtb, compound dose (near its own IC50) 9.38 µM
[2] = compound dose (near its own IC50) 9.38 µM
[3] = compound alone IC50 vs Mtb, compound dose (near its own IC50) 2.35 µM
[4] = compound dose (near its own IC50) 2.35 µM
[5] = compound alone IC50 vs Mtb, compound dose (near its own IC50) 4.69 µM
[6] = compound dose (near its own IC50) 4.69 µM
[7] = compound alone IC50 vs Mtb, compound dose (near its own IC50) 0.59 µM
[8] = compound dose (near its own IC50) 0.59 µM
[9] = compound alone IC50 vs Mtb, compound dose (near its own IC50) 0.15 µM
[10] = compound dose (near its own IC50) 0.15 µM
[11] = compound alone IC50 vs Mtb, compound dose (near its own IC50) 1.18 µM
[12] = compound dose (near its own IC50) 1.18 µM

## Cc1cc(C)n(-c2nc3ccccc3c(=O)n2OCC(=O)N(C)C)n1
[1]
  IC50: 7.74 µM
[2]
  IC50: 4.61 µM (inactive)

## NC(=S)N/N=C/c1ccc2ccccc2c1
[3]
  IC50: 2.02 µM
[4]
  IC50: 1.95 µM (inactive)

## c1ccc(-c2cc(N3CCOCC3)nc3ccccc23)cc1
[3]
  IC50: 2.78 µM
[4]
  IC50: 3.41 µM (inactive)

## Fc1ccc(-c2csc(NC(=S)Nc3ccccc3)n2)cc1
[1]
  IC50: 7.55 µM
[2]
  IC50: 2.74 µM (inactive)

## COc1ccc(/C=C/C(=O)N(C(C)C)C(C)C)cc1Br
[5]
  IC50: 5.89 µM
[6]
  IC50: 4.03 µM (inactive)

## Cc1ccc(-c2[nH][nH]c(=O)c(=O)c2N=Nc2ccccc2)cc1
[5]
  IC50: 4.12 µM
[6]
  IC50: 4.07 µM (inactive)

## Cc1ccc2[nH]c(O)c(N=Nc3nc4ccccc4s3)c2c1
[5]
  IC50: 6.76 µM
[6]
  IC50: 5.1 µM (inactive)

## CCC(C(=O)NC1C(=O)N2C(C(=O)O)=C(CSc3nnc(C)s3)CSC12)c1ccccc1 (centres undefined)
[7]
  IC50: 0.587 µM
[8]
  IC50: 1.99 µM (inactive)

## N/C(=N\c1nc2ccccc2o1)NC(=O)c1ccccc1Br
[9]
  IC50: 0.2 µM
[10]
  IC50: 7.58 µM (inactive)

## S=C(Nc1ccccc1)Nc1ccc(Cl)cn1
[5]
  IC50: 4.68 µM
[6]
  IC50: 4.86 µM (inactive)

## C[C@H](NC(=O)c1[nH]cnc1C(=O)Nc1ccc(Cl)cc1)C(=O)OC(C)(C)C
[1]
  IC50: 10.4 µM
[2]
  IC50: 4.93 µM (inactive)

## CSc1ncnc2c1ccn2CC(=O)Nc1ccc(C)c(C)c1
[1]
  IC50: 8.44 µM
[2]
  IC50: 7.31 µM (inactive)

## O=C(CCCCCN1C(=O)c2cccc([N+](=O)[O-])c2C1=O)Nc1ccccc1F
[1]
  IC50: 10.2 µM
[2]
  IC50: 1.08 µM (inactive)

## CSc1nc2cc3c(cc2n1C(=O)c1ccc(C)cc1)OCCO3
[5]
  IC50: 5.15 µM
[6]
  IC50: 4.06 µM (inactive)

## O=C(CCS(=O)(=O)c1ccc(F)cc1)Nc1nnc(-c2cccs2)o1
[3]
  IC50: 2.94 µM
[4]
  IC50: 5.51 µM (inactive)

## CC(C)CCN1CC(O)=C(c2nc3ccccc3[nH]2)C1=N
[5]
  IC50: 6.68 µM
[6]
  IC50: 4.06 µM (inactive)

## O=C(CCN1c2ccccc2Sc2ccccc21)Oc1ccccc1
[1]
  IC50: 8.48 µM
[2]
  IC50: 2.05 µM (inactive)

## C/C(=N\NC(=S)Nc1ccccc1C)c1ccc(O)cc1
[7]
  IC50: 0.552 µM
[8]
  IC50: 7.22 µM (inactive)

## O=C(Nc1cccc(Cl)c1N1CCOCC1)c1ccc([N+](=O)[O-])o1
[11]
  IC50: 0.909 µM
[12]
  IC50: 7.42 µM (inactive)

## COc1cccc(-c2ccc(-c3noc(-c4ccccc4F)n3)c(OC)n2)c1
[1]
  IC50: 9.65 µM
[2]
  IC50: 4.08 µM (inactive)

## COc1cc(/C(C)=N\NC(N)=S)cc(OC)c1OC
[1]
  IC50: 10.2 µM
[2]
  IC50: 2.82 µM (inactive)

## COc1c(F)c(F)c(C(=O)Nc2c(C)cc(Br)cc2C)c(F)c1F
[5]
  IC50: 4.58 µM
[6]
  IC50: 5.02 µM (inactive)

## Cc1ccc(CC(=O)Nc2nc3ccccc3[nH]2)cc1C
[5]
  IC50: 6.31 µM
[6]
  IC50: 4.04 µM (inactive)

## CCOc1cc(/C=N\Nc2ccc([N+](=O)[O-])cc2)ccc1OCC(=O)Nc1ccc(C)c(C)c1
[5]
  IC50: 5.99 µM
[6]
  IC50: 4.01 µM (inactive)

## COc1cc(C(=O)Oc2ccccc2/C=N/NC(=O)c2ccc(C)c(Cl)c2)cc(OC)c1OC
[3]
  IC50: 1.96 µM
[4]
  IC50: 4.26 µM (inactive)

## C/C(=N\NC(=O)c1cc(Br)ccc1O)c1ccccn1
[5]
  IC50: 3.88 µM
[6]
  IC50: 1.73 µM (inactive)

## Cc1nnc(SCC2=C(C(=O)O)N3C(=O)C(NC(=O)COc4ccc(F)cc4)C3SC2)s1 (centres undefined)
[3]
  IC50: 1.74 µM
[4]
  IC50: 1.04 µM (inactive)

## O=c1c(O)c(-c2ccc3c(c2)OCO3)oc2ccccc12
[3]
  IC50: 2.12 µM
[4]
  IC50: 7.4 µM (inactive)

## O=C(Cc1ccccc1Cl)Nc1nc2ccccc2[nH]1
[1]
  IC50: 9.31 µM
[2]
  IC50: < 0.52 µM

## CC(C)(C)c1ccc(C(=O)Oc2ccc3c(c2)OCC3=O)cc1
[1]
  IC50: 8.64 µM
[2]
  IC50: 4.92 µM (inactive)

## Cc1ccc(OCC(=O)Nc2ccc3c4c(cccc24)CC3)c(C)c1
[3]
  IC50: 1.71 µM
[4]
  IC50: 7.05 µM (inactive)

## CCc1ccc(NC(=O)c2c(Cl)nc(C)c(Cl)c2C)cc1
[1]
  IC50: 7.1 µM
[2]
  IC50: 7.77 µM (inactive)

## CCc1ccc2nc(/N=C(\N)NC(=O)c3ccccc3)nc(C)c2c1
[11]
  IC50: 1.02 µM
[12]
  IC50: 4.22 µM (inactive)

## c1ccc(Nc2ncnc3c2oc2ccccc23)cc1
[3]
  IC50: 2 µM
[4]
  IC50: 6.76 µM (inactive)

## COc1cccc(NC(=O)C2CC2)c1
[5]
  IC50: 6.09 µM
[6]
  IC50: 2.07 µM (inactive)

## C/C(=N\NC(=O)c1cc2c(s1)CCC(C)C2)c1ccc[nH]1 (centres undefined)
[5]
  IC50: 6.51 µM
[6]
  IC50: 1.98 µM (inactive)

## CCOC(=O)c1c(C)n(-c2ccccc2)c2ccc(OCCN(C)C)cc12
[5]
  IC50: 5.45 µM
[6]
  IC50: 4.08 µM (inactive)

## O=C(Nc1ccccc1)Nc1csc2ccccc12
[9]
  IC50: 0.2 µM
[10]
  IC50: 4.85 µM (inactive)

## COc1cccc(/C=N/NC(=O)c2cnccn2)c1O
[3]
  IC50: 2.58 µM
[4]
  IC50: 3.28 µM (inactive)

## CC(=O)c1c(C)[nH]c(C(=O)OCC(=O)Nc2nnc(-c3ccccc3)o2)c1C
[5]
  IC50: 4.19 µM
[6]
  IC50: 7.02 µM (inactive)

## C[C@H](NC(=O)c1[nH]cnc1C(=O)Nc1cccc(Cl)c1)c1ccccc1
[5]
  IC50: 3.59 µM
[6]
  IC50: < 0.52 µM

## N=C1C(c2nc3ccccc3[nH]2)=C(O)CN1c1ccc(F)cc1
[1]
  IC50: 7.73 µM
[2]
  IC50: 4.04 µM (inactive)

## O=C(CC12CC3CC(CC(C3)C1)C2)NCc1ccc(F)cc1
[1]
  IC50: 7.43 µM
[2]
  IC50: 7.53 µM (inactive)

## CC1=Nc2ccccc2/C1=C\c1nc(-c2ccc(F)cc2)oc1O
[5]
  IC50: 3.73 µM
[6]
  IC50: 4.02 µM (inactive)

## COc1cc(C(=O)N/N=C/c2ccc(OC(=O)c3cccc(C)c3)cc2)ccc1O
[5]
  IC50: 4.54 µM
[6]
  IC50: 4.14 µM (inactive)

## O=C(OC(C(=O)Nc1ccc(Cl)cc1C(F)(F)F)c1ccccc1)C1=COCCO1 (centres undefined)
[11]
  IC50: 1.23 µM
[12]
  IC50: 7.47 µM (inactive)

## Cc1c(OCc2ccc(C(=O)O)cc2)ccc2c(-c3ccccc3)cc(=O)oc12
[3]
  IC50: 1.42 µM
[4]
  IC50: 2.62 µM (inactive)

## CC(C)=CCC/C(C)=C/C=N/NC(=O)c1ccc([N+](=O)[O-])cc1
[11]
  IC50: 1.02 µM
[12]
  IC50: 3.4 µM (inactive)

## COc1cccc(C(=O)C2CCCN(Cc3ccccn3)C2)c1 (centres undefined)
[11]
  IC50: 1.46 µM
[12]
  IC50: 7.15 µM (inactive)

## Cc1cc(/C=N/NC(=O)CC#N)c(C)n1-c1ccc([N+](=O)[O-])cc1
[1]
  IC50: 10.2 µM
[2]
  IC50: 4.08 µM (inactive)

## COc1cccc(NC(=S)Nc2cc(C)cc(C)n2)c1
[5]
  IC50: 6.41 µM
[6]
  IC50: 4.07 µM (inactive)

## Cc1nn(-c2ccccc2)cc1/C=N/NC(N)=S
[5]
  IC50: 3.7 µM
[6]
  IC50: 2.68 µM (inactive)

## O=C(NN=C(Cc1ccccc1)Cc1ccccc1)c1ccccc1F
[11]
  IC50: 1.64 µM
[12]
  IC50: 4.28 µM (inactive)

## O=C(COc1ccc2ccccc2c1)Nc1nc2ccccc2[nH]1
[5]
  IC50: 5.83 µM
[6]
  IC50: 2.07 µM (inactive)

## CN(C)c1ccc(/C=C/c2nc3ccccc3s2)cc1
[1]
  IC50: 8.97 µM
[2]
  IC50: 3.55 µM (inactive)

## Cc1cc(C)c(OCC(=O)Nc2nc3ccccc3[nH]2)c(C)c1
[11]
  IC50: 1.22 µM
[12]
  IC50: 7.24 µM (inactive)

## Cc1ccccc1OCC(=O)Nc1ccccc1N1CCCCC1
[5]
  IC50: 5.94 µM
[6]
  IC50: 6.96 µM (inactive)

## CSc1nc(-c2ccc(Cl)cc2)nn1S(=O)(=O)c1ccccc1
[1]
  IC50: 9.85 µM
[2]
  IC50: 4.13 µM (inactive)

## CC(C)Cn1c2c(c(O)c(C(=O)Nc3nccs3)c1=O)CCCC2
[3]
  IC50: 3.22 µM
[4]
  IC50: 4.05 µM (inactive)

## COc1cccc(/C=N/NC(=O)CSCC(=O)Nc2ccccc2)c1O
[5]
  IC50: 5.41 µM
[6]
  IC50: 3.28 µM (inactive)

## CCOC(=O)c1cnc2cc(-c3ccc(C(C)(C)C)cc3)nn2c1N
[11]
  IC50: 0.899 µM
[12]
  IC50: 7.5 µM (inactive)

## COc1ccc(Cl)cc1NC(=O)C/C(C)=N/NC(=O)CC#N
[1]
  IC50: 7.99 µM
[2]
  IC50: 2.83 µM (inactive)

## Cc1cc(C)cc(NC(=O)c2cc(Cl)sc2Cl)c1
[5]
  IC50: 4.84 µM
[6]
  IC50: 1.88 µM (inactive)

## COC(=O)c1c(C)n(-c2ccccc2)c2ccc(O)cc12
[11]
  IC50: 1.53 µM
[12]
  IC50: 6.07 µM (inactive)

## COc1cccc(/C=N/NC(=O)NC23CC4CC(CC(C4)C2)C3)c1O
[3]
  IC50: 2.93 µM
[4]
  IC50: 5.23 µM (inactive)

## Cn1c(/C=N/c2nc3ccccc3[nH]2)nc2ccccc21
[9]
  IC50: 0.2 µM
[10]
  IC50: 6.15 µM (inactive)

## Cc1[nH]n(-c2ccccc2)c(=O)c1/C=N/NC(=O)c1ccoc1C
[7]
  IC50: 0.655 µM
[8]
  IC50: 7.56 µM (inactive)

## Cc1ccccc1OCC(=O)Nc1ccccc1-c1ccccc1
[5]
  IC50: 6.04 µM
[6]
  IC50: 4.07 µM (inactive)

## CCCN1C(=O)S/C(=C/c2ccc(N3CCOCC3)o2)C1=O
[9]
  IC50: 0.2 µM
[10]
  IC50: 5.45 µM (inactive)

## C=C1C(=O)O[C@@H]2[C@H]1[C@@H](OC(=O)/C(C)=C/C)C/C(C)=C\C(=O)/C=C(\C)[C@@H]2O
[11]
  IC50: 1.24 µM
[12]
  IC50: 6.46 µM (inactive)

## c1ccc(OCc2nnc(-c3ccccc3)o2)cc1
[11]
  IC50: 1.4 µM
[12]
  IC50: 7.26 µM (inactive)

## CC(=O)Nc1cccc(/C(C)=N/NC(N)=S)c1
[1]
  IC50: 7.9 µM
[2]
  IC50: 2.08 µM (inactive)

## CCOC(=O)COc1nc(-c2ccc(Cl)cc2)cc(-c2ccco2)c1C#N
[5]
  IC50: 3.82 µM
[6]
  IC50: 7.14 µM (inactive)

## O=C1O/C(=C/c2ccccc2)N=C1c1ccccc1
[11]
  IC50: 1.34 µM
[12]
  IC50: 4.56 µM (inactive)

## COc1ccc2c(c1)c(C(C)=O)c(C)n2-c1ccccc1
Compound alone IC50 vs Mtb, compound dose (near its own IC50) 0.3 µM
  IC50: 0.336 µM
Compound dose (near its own IC50) 0.3 µM
  IC50: 7.65 µM (inactive)

## COC(=O)c1sc(-c2ccc(C(C)(C)C)cc2)cc1NC(=O)CCC(=O)O
[11]
  IC50: 1.37 µM
[12]
  IC50: 7.19 µM (inactive)

## CO/N=C(\C(=O)N[C@@H]1C(=O)N2C(C(=O)O)=C(COC(C)=O)CS[C@H]12)c1csc(N)n1 (stereo in doubt)
[1]
  IC50: 10.3 µM
[2]
  IC50: 1.01 µM (inactive)
